According to patent publication EP0694545B1, “Substituted dibenzoxazepine compounds, pharmaceutical compositions and methods of use” (G.D. SEARLE & CO., priority 1991, dated 1992):

What was measured:
[1] = tested on: Charles River male albino mice; test: PBQ Writhing Assay (analgesic activity); type: in vivo; conditions: for ED50: Mus musculus, po, read-out: PBQ WRITHING ASSAY (ED50 (mpk)) I.G.; for PBQ WRITHING ASSAY I.G. (Active / *): intragastric; for PBQ WRITHING ASSAY I.G. (Active / *) / PBQ WRITHING ASSAY S.C. (Active / *): initial screening dose 30 mg per kilogram, 30 min before PBQ i.p., writhes counted for ten minutes; for PBQ WRITHING ASSAY S.C. (Active / *): subcutaneous
From the text: The Writhing Assay is one of the most widely-used experimental procedures for measuring the analgesic activity of different narcotic and nonnarcotic analgesic agents, and involves the continuous, chemically-induced pain of visceral origin to an animal, such as a mouse or rat. [Gyires et al., Arch. int. Pharmacodyn, 267, 131-140 (1984); […] al., Fed. Proc., 15, 494 (1956); Koster et al., Fed. Proc., 18, 412 (1959); and Witken et al., J. Pharmacol. exp. Ther., 133, 400-408 (1961).] Chemicals which may be used to induce this pain include phenylbenzoquinone (PBQ) and acetic acid. As a result of the chemical irritation to the animal, a characteristic stretching and writhing of the animal (dorsiflexion of the animal's back, extension of its hindlimbs and the strong contraction of its abdominal musculature) will generally occur. […] Drugs which reduce the number of writhes of the animal appear to restore the normal nociceptive threshold of the animal. Charles River male albino mice, weighing 20 to 30 grams were used in this assay. Thirty minutes after subcutaneous or intragastric administration to ten mice of 30 mg per kilogram of body weight of a compound of the present invention ("test compound"), […] per 10 g of body weight of a 0.025% w/v solution of PBQ was injected intraperitoneally into each mouse. Ten mice which were given saline in place of a test compound of the invention were used as a control group. Five minutes later, each mouse was individually placed into a glass beaker for observation, and the number of writhes occurring during the following ten-minute period was counted. A test compound was considered to have produced analgesia in a mouse if, in accordance with the conditions set forth above, and under the test criteria employed for this assay, after the administration of 30 mg per kilogram of body weight of a compound of the present invention to the mouse, the number of writhes elicited by a mouse injected with PBQ was equal to, or less than, one-half the median number of writhes recorded for the saline-treated control group of mice that day, as described by Taber in "Predictive Value of Analgesic Assays in Mice and Rats," Advances in Biochemical Psychopharmacology, 8, 191 (1974). The standard initial screening dose of a test compound employed in this assay was […] for both routes of administration. If this initial screening dose of the test compound produced analgesia in seven of ten mice, then the effect of additional doses of the test compound on the writhing response was evaluated, and then the ED50 dose was generally calculated. (The slopes of the dose-response curves for all test compounds analyzed were compared as described by Tallarida and Murray, Manual of Pharmacologic Calculations, Page 11 (Springer Verlag, New York, 1981)).

[2] = tested on: prostaglandin E2-induced contractions of segments of guinea pig ileum; test: Prostaglandin (PGE) Antagonism Assay in guinea pig ileum; type: cell-based; design: key to PGE ANTAGONISM IN GUINEA PIG ILEUM (Active): Active: A concentration of test compound was determined to be "active" if it produced a dose ratio significantly greater than that obtained in a series of blank treatments; conditions: for Kb: Cavia porcellus, read-out: PGE ANTAGONISM IN GUINEA PIG ILEUM (pA2) (converted); for PGE ANTAGONISM IN GUINEA PIG ILEUM (Active): initial concentration of test compound, dose ratio of EC50 dose values versus blank treatments
Protocol: In order to determine the effectiveness of several of the compounds of the present invention ("test compounds") as prostaglandin E2 antagonists, a prostaglandin antagonism assay was conducted, as described below, to determine the ability of these compounds to inhibit prostaglandin E2-induced contractions of segments of guinea pig ileum.
Male albino guinea pigs weighing 200 to 500 grams were sacrificed by cervical dislocation.
The ileums were then quickly removed from the guinea pigs and placed in a modified Tyrode solution, a solution which is known to those of skill in the art, containing one-half of the usual amount of magnesium ions.
Segments of ileum about 2 cm long were then cut and mounted in a 10-mL tissue bath containing the modified Tyrode solution. The solution was maintained at 37°C and aerated with a gaseous mixture of 95% oxygen and 5% carbon dioxide.
Submaximal contractions of the ileum segments were then generated by injecting prostaglandin E2 into the bath, and detected isotonically. Data for a control prostaglandin E2 dose response curve plotting concentration of prostaglandin E2 versus number of contractions generated was then obtained by experimentally adjusting the dose of the prostaglandin E2 being injected into the tissue bath, in a manner known by those of skill in the art.
Solutions or suspensions containing an initial amount of a test compound in modified Tyrode solution ("test solutions/ suspensions") were then separately substituted for the tissue bath. Each test solution/suspension was then kept in constant contact with the ileum tissue, except for brief periods to drain the bath in preparation for rinsing with fresh test solution/suspension. Different doses of prostaglandin E2 were again injected into the test solutions/suspensions.
A second prostaglandin E2 dose response curve was then generated for prostaglandin E2 in the presence of a test compound.
A dose ratio of EC50 dose values was then calculated from the results of each test in a manner known by those of skill in the art. […] Duplicate tests were conducted on each concentration of test compound.
If the initial concentration of a test compound was determined to be "active," then varying concentrations of the test compound were then assayed. As is shown in Table I below, all test compounds analyzed in this assay were determined to be "active" as prostaglandin E2 antagonists at the initial concentration.
The pA2 value (a statistical constant which is a common measure of expressing the potency of a particular drug as a competitive antagonist) was then calculated for each test compound by schild plot calculations, as described by H. O. Schild, "pA, A New Scale for the Measurement of Drug Antagonism," Br. J. Pharmacol, 2, 189 (1947), according to the following mathematical formula: pA2 = -log[Test Compound] to quantitate the effectiveness of the test compounds as prostaglandin E2 antagonists.

Row | Compound | ED50 ([1]; intragastric administration) | PBQ WRITHING ASSAY I.G. (Active / *) [1] | PBQ WRITHING ASSAY S.C. (Active / *) [1] | Kb ([2]; Schild plot calculation) | PGE ANTAGONISM IN GUINEA PIG ILEUM (Active) [2] | PBQ WRITHING ASSAY (ED50 (mpk)) I.G. ([1]; intragastric administration) | PBQ WRITHING ASSAY (ED50 (mpk)) S.C. ([1]; subcutaneous administration) | PGE ANTAGONISM IN GUINEA PIG ILEUM (pA2) ([2]; Schild plot calculation)
1 | O=C(CCCc1cccs1)NNC(=O)N1Cc2ccccc2Oc2ccc(Cl)cc21 [Example 9, 8-chlorodibenz[b,f][1,4]oxazepine-10(11H)-carboxylic acid, 2-[1-oxo-4-(2-thienyl)butyl]hydrazide] | 6.8 mg/kg | Active | Active | 0.0251 µM | Active | – | – | –
2 | 8-chlorodibenz[b,f][1,4]oxazepine-10(11H)-carboxylic acid, 2-[1-oxo-3-(4-pyridinyl)propyl]hydrazide, monohydrochloride [Example 26] | – | Active | Active | – | Active | 6.8 mpk | 6.3 mpk | 6.5
3 | O=C(CCc1ccccn1)NNC(=O)N1Cc2ccccc2Oc2ccc(Cl)cc21 [Example 6, 8-chlorodibenz[b,f][1,4]oxazepine-10(11H)-carboxylic acid, 2-[1-oxo-3-(2-pyridinyl)propyl]hydrazide] | 8.6 mg/kg | Active | Active | 2.51 µM | Active | – | – | –
